Columns and labels:
[1] = In vitro drug release kinetics of ECA-L-Cysteine polyanhydride microparticles; format: physicochemical; settings: accelerated infinite sink conditions at 37° C.; FIG. 1
Text: FIG. 1 is a graph showing the release of ECA-L-cysteine (% release) as a function of time (days).

normal, C57BL/6 mice = assay: IOP lowering effect in normal mice after administration via the epischleral vein at the limbus; format: in vivo
Text: FIG. 2A is a graph showing intraocular pressure (IOP, mmHg) as function of administration of free ECA and a control over time (days). FIG. 2B is a graph showing intraocular pressure (IOP, mmHg) as function of administration of ECA-L-cysteine particles and a control over time (days).

[2] = tested on: human patients with elevated IOP; settings: intracameral administration; cited from earlier work

time over which ECA-L-Cysteine conjugate was continually released in vitro [1] [days]	SMILES	duration of the IOP lowering effect (normal, C57BL/6 mice; 1 μg drug via epischleral vein at the limbus) [days]	IOP lowering compared to the untreated control group (normal, C57BL/6 mice; 1 μg drug via epischleral vein at the limbus, FIGS. 2A and 2B)	IOP lowering effect by Day 5 (normal, C57BL/6 mice; 1 μg free drug, Day 5)	duration of IOP lowering [2]
14	CCC(CSC[C@H](N)C(=O)O)C(=O)c1ccc(OCC(=O)O)c(Cl)c1Cl (stereo partly drawn) [ECA-L-Cysteine conjugate]	–	–	–	–
–	C=C(CC)C(=O)c1ccc(OCC(=O)O)c(Cl)c1Cl [free ECA, ethacrynic acid]	1	significant lowering of IOP	gone	three

— patent US20180008718A1, “COMPOSITIONS FOR THE SUSTAINED RELEASE OF ANTI-GLAUCOMA AGENTS TO CONTROL INTRAOCULAR PRESSURE” (The Johns Hopkins University, priority 2015, published 2018)
